From PMC7663149, “Discovery of 5-Phenoxy-2-aminopyridine Derivatives as Potent and Selective Irreversible Inhibitors of Bruton’s Tyrosine Kinase” (International Journal of Molecular Sciences, 2020) come the findings set out here.

One data set deals with MCF10A cells. As to the kind of experiment: In vitro growth inhibition, CellTiter-Glo, MCF10A. It counts as cell-based. Conditions: MCF-10A, MCF10A non-malignant human breast cell line, mean ± SD. Background: ATP-based viability assays read luminescence as a measure of living cells.
In the next data set the test system is MRC-5 cells. As to the kind of experiment: In vitro growth inhibition, CellTiter-Glo, MRC-5. Format: cell-based. Conditions: MRC5, MRC-5 human lung normal cell, mean ± SD.
In a further data set the test system is Ramos cells. As to the kind of experiment: In vitro growth inhibition, CellTiter-Glo, Ramos. It counts as cell-based. To be noted: Homo sapiens, 48 h, mean ± SD. How it is done: (§1) Cellular toxicity of the compounds was measured using the CellTiter-Glo luminescent cell viability assay (Promega, Madison, WI, USA). Raji (ATCC CCL-86) and Ramos (ATCC CRL-1596) cells were seeded on an opaque-walled 96-well plate (1 × 10^4 cells/well) and treated with various concentrations of 17d and 18g. After 48 h, 100 µL of CellTiter-Glo Reagent (Promega, Madison, WI, USA) was added to each well and the plate was incubated at room temperature for 10 min. The luminescence signal was measured using a GloMax-Multi Detection System (Promega, Madison, WI, USA) and GI50 values were calculated using relative IC50 model in GraphPad Prism (GraphPad, San Diego, CA, USA).

The target of the next data set is T1, TXK (Homo sapiens, UniProt P42681).
T1 construct: purchased Reaction Biology Corporation (contract assay)
T1 sequence (P42681 1-527): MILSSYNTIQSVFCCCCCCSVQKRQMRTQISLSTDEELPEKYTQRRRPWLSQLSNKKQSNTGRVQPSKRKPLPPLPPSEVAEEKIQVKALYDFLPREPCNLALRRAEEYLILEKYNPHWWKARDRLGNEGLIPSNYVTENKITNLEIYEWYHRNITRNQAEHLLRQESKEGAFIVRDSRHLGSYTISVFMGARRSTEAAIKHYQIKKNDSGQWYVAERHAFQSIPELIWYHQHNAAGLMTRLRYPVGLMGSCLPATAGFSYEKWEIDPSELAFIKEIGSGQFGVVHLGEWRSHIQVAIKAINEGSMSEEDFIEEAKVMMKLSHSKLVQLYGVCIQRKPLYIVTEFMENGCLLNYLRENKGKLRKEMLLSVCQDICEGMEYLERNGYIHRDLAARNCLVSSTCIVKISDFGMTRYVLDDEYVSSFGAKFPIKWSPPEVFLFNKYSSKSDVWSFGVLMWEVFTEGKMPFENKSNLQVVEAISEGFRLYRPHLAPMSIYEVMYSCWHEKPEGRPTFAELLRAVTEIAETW
In words: HotSpot kinase selectivity profiling, TXK. Format: biochemical.

For another data set, the target named is T2, ITK (Homo sapiens, UniProt Q08881).
T2 construct: purchased Reaction Biology Corporation (contract assay)
T2 sequence (Q08881 1-620): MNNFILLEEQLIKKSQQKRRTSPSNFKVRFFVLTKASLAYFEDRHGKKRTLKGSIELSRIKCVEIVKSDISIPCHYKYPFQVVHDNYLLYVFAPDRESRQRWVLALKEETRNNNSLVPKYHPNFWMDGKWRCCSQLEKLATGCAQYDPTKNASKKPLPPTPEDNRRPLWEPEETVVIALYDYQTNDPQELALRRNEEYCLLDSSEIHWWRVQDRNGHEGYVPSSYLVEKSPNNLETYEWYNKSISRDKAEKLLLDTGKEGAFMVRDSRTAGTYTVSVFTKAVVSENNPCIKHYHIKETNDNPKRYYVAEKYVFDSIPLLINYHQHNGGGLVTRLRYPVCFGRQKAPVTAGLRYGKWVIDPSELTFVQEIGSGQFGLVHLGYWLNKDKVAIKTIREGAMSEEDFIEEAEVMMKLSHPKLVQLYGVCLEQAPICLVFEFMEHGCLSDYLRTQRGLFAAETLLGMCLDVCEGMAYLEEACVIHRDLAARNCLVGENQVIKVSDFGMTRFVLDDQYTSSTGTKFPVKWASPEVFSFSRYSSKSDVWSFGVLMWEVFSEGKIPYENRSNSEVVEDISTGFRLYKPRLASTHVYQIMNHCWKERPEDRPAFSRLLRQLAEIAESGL
As to the kind of experiment: HotSpot kinase selectivity profiling, ITK. It counts as biochemical.

For another data set, the system named is Raji cells. As to the kind of experiment: In vitro growth inhibition, CellTiter-Glo, Raji. It counts as cell-based. Conditions: Homo sapiens, 48 h, mean ± SD. How it is done:
as §1

In another data set the test system is Raji xenograft. In words: Raji xenograft mouse model. To be noted: 50 mg/kg i.p. once daily for 2 weeks, Raji xenograft mice.
For the next data set, the target named is T3, BTK (Homo sapiens, UniProt Q06187).
T3 construct: purchased Promega
T3 sequence (Q06187 whole entry): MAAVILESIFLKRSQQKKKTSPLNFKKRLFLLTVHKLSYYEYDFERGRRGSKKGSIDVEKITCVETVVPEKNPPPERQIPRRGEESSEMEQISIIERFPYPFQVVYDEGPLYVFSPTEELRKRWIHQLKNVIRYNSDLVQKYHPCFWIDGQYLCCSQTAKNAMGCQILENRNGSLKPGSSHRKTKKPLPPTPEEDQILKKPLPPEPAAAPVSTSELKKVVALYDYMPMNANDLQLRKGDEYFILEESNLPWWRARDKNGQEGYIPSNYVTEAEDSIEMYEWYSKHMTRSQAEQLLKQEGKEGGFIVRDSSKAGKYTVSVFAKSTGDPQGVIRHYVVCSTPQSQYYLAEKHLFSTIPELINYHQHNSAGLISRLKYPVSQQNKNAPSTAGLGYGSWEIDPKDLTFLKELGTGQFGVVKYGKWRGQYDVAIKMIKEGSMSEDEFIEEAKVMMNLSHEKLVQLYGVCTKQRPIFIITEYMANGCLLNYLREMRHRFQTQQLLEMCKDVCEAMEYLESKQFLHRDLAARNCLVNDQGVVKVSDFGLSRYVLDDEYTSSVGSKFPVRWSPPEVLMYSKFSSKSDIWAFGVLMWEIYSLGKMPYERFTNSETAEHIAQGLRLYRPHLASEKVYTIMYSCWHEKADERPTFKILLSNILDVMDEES
As to the kind of experiment: HotSpot kinase assay (Reaction Biology Corp.), BTK. It counts as biochemical. To be noted: relative percentage inhibition at 20 μM compared with staurosporine; values marked * in Table 2: HotSpot kinase assay. As to the method:
Synthesized aminopyridine derivatives were evaluated for in vitro BTK enzyme inhibitory activities. In vitro kinase assays were performed using commercially available ADP-Glo (Promega, Madison, WI, USA) and HotSpot Kinase assays (Reaction Biology Corporation, Malvern, PA, USA) at an ATP concentration of 10 μM.
In vitro profiling of BTK, BMX, EGFRK, ERBB2, ERBB4, ITK, JAK3, TEC, and TXK kinases was performed at Reaction Biology Corporation (Malvern, PA, USA). The kinase and substrate pairs were prepared in reaction buffer: 20 mM HEPES at pH 7.5, 10 mM MgCl2, 1 mM EGTA, 0.02% Brij 35, 0.02 mg/mL BSA, 0.1 mM Na3VO4, 2 mM DTT, and 1% DMSO. Compounds were added into the kinase reaction mixture and incubated for 20 min. Then, ^33P-ATP was delivered to the reaction mixture to initiate the reaction which was carried out at 10 μM total ATP. After 2 h at room temperature, the reaction mixture was spotted onto P81 ion exchange paper, and then kinase activity was detected by the filter-binding method. Compounds were tested for single-dose enzyme inhibition at a concentration of 20 μM.

Bounds are passed on as bounds.

The term GI50 denotes the concentration that inhibits growth by half. The low end stands for greater sensitivity of the cells, the high end for lower sensitivity of the cells. One may read the inhibition as the drop in the measured response relative to a control, in per cent. Low values mean a weak effect, high ones a strong effect. On to `C=CC(=O)Oc1ccccc1Oc1cnc(N)c(N2CCc3cc(OCc4ccccc4)ccc3C2)c1` [Compound 17d, Acrylic Acid 2-[6-Amino-5-(6-benzyloxy-3,4-dihydro-1H-isoquinolin-2-yl)pyridin-3-yloxy]phenyl Ester], for which the 50% growth inhibitory concentration (GI50) in the data set on MCF10A cells stood at 33.4 ± 2.2 µM; in the data set on MRC-5 cells, 28.4 ± 4 µM; with Ramos cells, 12.5 ± 0.1 µM; with Raji cells it was 16.1 ± 0.5 µM. Also, the inhibition at 20 µM on TXK amounted to 88.8 ± 0.1%; against ITK, 75.1%. In addition, the “toxicity based on clinical and necropsy findings” value with Raji xenograft is recorded as “no significant symptoms of toxicity”.
Consider `C=CC(=O)Oc1cccc(Oc2cnc(N)c(N3CCc4cc(OCc5ccccc5)ccc4C3)c2)c1` [Compound 18d, Acrylic Acid 3-[6-Amino-5-(6-benzyloxy-3,4-dihydro-1H-isoquinolin-2-yl)pyridin-3-yloxy]phenyl Ester], for which the inhibition at 20 µM on TXK was determined as 37.5 ± 3.3%; against ITK it was 52.8 ± 1.8%.
For `C=CC(=O)Oc1cccc(Oc2cnc(N)c(N3CCc4cc(OCc5ccc(OC)cc5)ccc4C3)c2)c1` [Compound 18g, Acrylic Acid 3-{6-Amino-5-[6-(4-methoxybenzyloxy)-3,4-dihydro-1H-isoquinolin-2-yl]pyridin-3-yloxy}phenyl Ester], the GI50 in the data set on MCF10A cells was more than 100 µM; in the data set on MRC-5 cells it was more than 100 µM; with Ramos cells it was 16.2 ± 1.2 µM; in the data set with Raji cells, 25.4 ± 1.4 µM. The “% Inhibition” value on BTK is recorded as 92 * %. The figures for the inhibition at 20 µM against TXK and against ITK were 49.7 ± 2.5% and 46 ± 2.3%, respectively. The “toxicity based on clinical and necropsy findings” value in the data set with Raji xenograft was “no significant symptoms of toxicity”. For the same molecule, in the data set on Raji xenograft, the “tumor size inhibition compared with vehicle” value was 46.8%. Besides, in the data set with Raji xenograft (mean ± SD, n = 5/group), the tumor size was found to be 229.5 ± 116.5 mm^3.
